According to PMC8424097, “Population Pharmacokinetics of Polymyxin B and Dosage Optimization in Renal Transplant Patients” (Frontiers in Pharmacology, 2021):
Positions of bridges follow the written chain, without caps; N, C: chain ends. Non-standard residues stand in square brackets, D forms with d. Residues, ends and D or L forms follow the SMILES beside them. *: point of attachment. X1 = CC[C@H](C)CCCCC(=O)*; Dab = NCC[C@H](N)C(=O)O

Assays:
[1] = Population pharmacokinetic analysis of polymyxin B in renal transplant patients (plasma, HPLC-MS/MS, Phoenix NLME); assay type: in vivo, human
Method: This prospective study was approved by the Ethics Committee of the Second Xiangya Hospital, Central South University. Informed consent was obtained from all patients or legal representatives of the patients (No. ChiCTR1900022231). Renal transplant patients (aged ≥18 years) who received intravenous polymyxin B (sulfate; Polymyxin B for Injection, China, SPH NO.1 BIOCHEMICAL and PHARMACEUTICAL CO. LTA) for ≥48 h were enrolled. Patients were excluded if they were pregnant, allergic or intolerant to polymyxin B and lacked the necessary data (weight or some renal function index).
All patients accepted at least 3 days of polymyxin B infusion, and the administration interval of polymyxin B was 12 h with an infusion duration of 60–120 min. One to six blood samples (2 mL) were randomly collected 30 min before the sixth dose of polymyxin B and at 0, 0.5, 1, 2, 4, 6, and 8 h after the end of infusion. Blood samples were centrifuged for 10 min (3,400 rpm/min), and the supernatant was immediately stored at −80°C until analysis. A validated high-performance liquid chromatography-tandem mass spectrometry (HPLC-MS/MS) was used to measure the concentrations of polymyxin B1 and polymyxin B2 ([Thomas et al., 2012]). Briefly, a Shim-pack GIST C18 (2.1*100 mm, 3 μm, Shimadzu) column was used. Gradient chromatography was performed with solvent A (0.1% formic acid in water) and solvent B (acetonitrile). The following gradient elution was performed at a total flow of 0.6 ml/min for analyte elution: 10–60% B from 0 to 5 min, 60%–90% B from five to 5.10 min, 90% from 5.10 to 6 min, 90%–10% B from six to 6.10 min, and 10% B from 6.10 to 10.0 min. The elution time was 10 min, and the injection volume was 2 μL. The interday precision was <12%, the intraday precision was <9%, and the accuracy ranged from 96.1 to 110.4%. The limit of quantification was 0.03 mg/L.
(§1) The following data were collected: age; sex; weight; maintenance doses; time and route of administration; site of infection; microbes; comorbidities; liver function indexes, such as alanine aminotransferase (ALT), aspartate aminotransferase (AST), total bilirubin (TBIL), direct bilirubin (DBIL), and albumin (ALB); and renal function indexes, such as uric acid (UA), blood urea nitrogen (BUN), and CrCL. CrCL was calculated according to the Cockcroft-Gault equation ([Janmahasatian et al., 2005]). CrCL ≤80 ml/min was defined as renal dysfunction, and when the basic CrCL decreased by more than 25%, nephrotoxicity was defined. Risk, injury, failure, loss and end-stage renal disease criteria were used to define acute kidney injury (AKI) in patients ([Bellomo et al., 2004]). Neurotoxicity was defined when any neurological symptoms or signs occurred during polymyxin B treatment, including dizziness, vertigo, visual disturbances, confusion, hallucinations, ataxia, seizures, and facial and peripheral paresthesia. The observed AUC0–24h of patients was calculated by daily dose/CL.
The concentration-time data of polymyxin B were analyzed with a nonlinear mixed effect modeling approach with the Phoenix NLME program (version 8.1. Pharsight, A Certara Company, United States of America). The first-order conditional estimation-extended least square method (FOCE-ELS) was used to develop the PPK model. One- and two-compartment models with linear elimination were evaluated for structure model selection based on the objective function value (OFV) and Akaike information criterion (AIC). The interindividual variability of PK parameters was described by an exponential error model. Residual variability was selected with an additive error model, proportional error model and combined error model. The covariates considered for the modeling included age, weight, ALT, AST, TBIL, DBIL, ALB, BUN, UA, and CrCL. The median of the covariate was used to normalize the covariate, and a stepwise method was used to screen the covariates. […]

[2] = Adverse effects (nephrotoxicity, neurotoxicity, skin) during polymyxin B treatment of renal transplant patients; assay type: in vivo, human
Method: as §1

[3] = cited from earlier work
Method: According to the results from previous pharmacokinetics and pharmacodynamics (PK/PD) studies, the bactericidal activity of polymyxin B is best correlated with the area under the concentration-time curve over 24 h in steady state divided by the minimum inhibitory concentration (AUC0–24h/MIC) ([Mohamed et al., 2012]). Moreover, the latest guidelines recommended a target plasma AUC0–24h of 50–100 mg⋅h/L to achieve bactericidal activity against an isolate with an MIC of 2 mg/L (the EUCAST and CLSI breakpoints) ([Tsuji et al., 2019]). However, due to the lack of rigorous PK data, the optimal dosing ... || Monte Carlo simulations (n = 1,000) were conducted using metrics to determine the PTA for fAUC0–24h/MIC ≥20 at various MICs (0.5–2 mg/L) in patients with different renal functions (CrCL: 10–80 ml/min), where f is the unbound fraction of polymyxin B (assumed to be 0.42) ([Sandri et al., 2013b]). The dosages were selected according to the most commonly used regimens in renal transplant patients. The regimens were as follows with a 2 h infusion: a single 50 mg loading dose followed by either 30 mg every 12 h or 40 mg every 12 h, either a loading dose of 75 mg or 100 mg followed by 50 mg every 12 ... || In the present study, a one-compartment model was used to describe the original data, which was consistent with some of the previous studies ([Kubin et al., 2018]; [Manchandani et al., 2018]). […] This difference might be mainly due to impaired renal function in the renal transplant patients in this study (CrCL: 20.89 ml/min, range: 4.29–78.84 ml/min) because we identified CrCL as a significant predic ... || (+ 1 further places)

[4] = rats, 6 h after dosing; ref Manchandani et al., 2015; cited from earlier work
Method: Polymyxin B is mainly distributed in the kidney, and the renal tissue/serum concentration ratio of polymyxin B was 19.62 at 6 h after dosing in rats ([Manchandani et al., 2015]). Therefore, the variation in polymyxin B accumulation in the kidney might be responsible for the differences in the apparent volume of distribution. In addition t ...

[5] = cited from earlier work; remark: listed apart in the source
From the text: It is well known that nephrotoxicity is the major adverse effect of polymyxin B, with a wide range from 26.9 to 60% ([Plachouras et al., 2009]; [Akajagbor et al., 2013]; [Dubrovskaya et al., 2015]; [Rigatto et al., 2015]). In the present study, however, the incidence of AKI was extremely low, with only five patients showing nephrotoxicity. As polymyxin B-induced nephrotoxicity is a dose-limiting adverse effect, our result seemed to be consistent with the previous finding that patients with renal impairment might have a lower incidence of AKI due to the decreased percentage of tubular reabsorpt ... || The incidence of neurotoxicity was much higher than noted before (62.0 vs 7%) and has become the dose-limiting factor in our study ([Arnold et al., 2007]). […] Considering their similar structures, this mechanism might also fit polymyxin B; therefore, the higher exposure of p ...

[6] = of 50 renal transplant patients
[7] = patients of previous studies, ref Kubin et al., 2018, Manchandani et al.

CC[C@H](C)CCCCC(=O)N[C@@H](CCN)C(=O)N[C@H](C(=O)N[C@@H](CCN)C(=O)N[C@H]1CCNC(=O)[C@H]([C@@H](C)O)NC(=O)[C@H](CCN)NC(=O)[C@H](CCN)NC(=O)[C@H](CC(C)C)NC(=O)[C@@H](Cc2ccccc2)NC(=O)[C@H](CCN)NC1=O)[C@@H](C)O [polymyxin B] (X1-[Dab]T[Dab][Dab][Dab][dF]L[Dab][Dab]T; lactam 4-C)
CL, bootstrap median ([1]; bootstrap, 1000 resamples): 1.17 L/h
V, bootstrap median ([1]; bootstrap, 1000 resamples): 11.98 L
Θ CrCL, bootstrap median ([1]; bootstrap, 1000 resamples): 0.14
mean AUC0–24h (observed) ([1]; calculated by daily dose/CL, mean ± SD, SD): 74600 ± 17810 ng·h/mL
Θ CrCL (exponent for CrCL as a covariate for CL), final model estimate ([1]; final PPK model): 0.14
Vd ([1]; human, intravenous q 12 h, one-compartment PPK model, 151 plasma samples from 50 patients, HPLC-MS/MS, read-out: V, final model estimate): 12.1 L
clearance ([1]; human, intravenous q 12 h, one-compartment PPK model, typical value at CrCL 22.2 ml/min, 151 plasma samples from 50 patients, read-out: CL, final model estimate (converted)): 19.7 mL/min
incidence of dermatitis ([2]; 50 renal transplant patients): 34.0%
incidence of neurotoxicity ([2]; 50 renal transplant patients): 62.0%
nephrotoxicity classified as injury (RIFLE) [2, 6]: one
nephrotoxicity classified as risk (RIFLE) [2, 6]: four
patients with dermatitis [2, 6]: Seventeen
patients with dizziness [2, 6]: three
patients with facial and peripheral paresthesia [2, 6]: 29 patients
patients with nephrotoxicity (basic CrCL decreased by more than 25%) [2, 6]: five
patients with neurotoxicity of different degrees [2, 6]: 31 patients
patients with seizures [2, 6]: three
patients with pigmentation ([2]; of 50 renal transplant patients, all disappeared 1 month after withdrawal): Seven
days printed for the nephrotoxicity case classified as injury ([2]; renal transplant patients): 11 days
days printed for the nephrotoxicity cases (all five) ([2]; renal transplant patients): 3 to 11 days
days printed for the nephrotoxicity cases classified as risk ([2]; renal transplant patients): 3 to 7 days
CL reported in previous one-compartment models [3, 7]: 2.37 to 2.5 L/h
V reported by previous studies [3, 7]: 34.3 to 34.4 L
urinary recovery (range between patients) ([3]; previous study in patients, ref Sandri et al., 2013b): 0.98–17.4%
patients achieving the AUC0–24h target at the recommended dosage ([3]; ref Lakota et al., 2018): 71%
unbound fraction f (assumed) ([3]; used for fAUC0–24h/MIC in the simulations, ref Sandri et al., 2013b): 0.42
renal tissue/serum concentration ratio [4]: 19.62
incidence of neurotoxicity noted before ([5]; ref Arnold et al., 2007): 7%
incidence of nephrotoxicity (range of previous reports) ([5]; ref Plachouras et al., 2009, Akajagbor et al., 2013, Dubrovskaya et al., 2015, Rigatto et al., 2015): 26.9 to 60%
